From BindingDB's records for doi:10.1038/nchembio.1865 (University of British Columbia, 2015)

Molecular target: T1, Pancreatic alpha-amylase (Homo sapiens, UniProt P04746)
T1 sequence (P04746 whole entry): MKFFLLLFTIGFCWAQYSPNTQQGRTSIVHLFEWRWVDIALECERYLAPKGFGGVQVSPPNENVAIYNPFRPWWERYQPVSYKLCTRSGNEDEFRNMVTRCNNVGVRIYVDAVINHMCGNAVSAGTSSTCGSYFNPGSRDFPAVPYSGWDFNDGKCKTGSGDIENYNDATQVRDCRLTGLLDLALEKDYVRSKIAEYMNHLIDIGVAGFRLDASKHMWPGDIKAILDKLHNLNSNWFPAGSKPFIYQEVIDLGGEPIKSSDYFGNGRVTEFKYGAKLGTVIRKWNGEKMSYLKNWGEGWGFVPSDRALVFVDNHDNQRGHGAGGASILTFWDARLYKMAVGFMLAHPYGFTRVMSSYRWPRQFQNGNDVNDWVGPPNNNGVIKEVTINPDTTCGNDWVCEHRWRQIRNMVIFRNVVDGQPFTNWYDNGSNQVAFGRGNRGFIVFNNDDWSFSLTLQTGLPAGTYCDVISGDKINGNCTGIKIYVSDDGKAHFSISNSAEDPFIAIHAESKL
Experiment: Kinetic Studies
Details: 30 °C
Description: 2-Chloro-4-nitrophenyl α-d-maltotrioside (CNP-G3) was used as the substrate in a similar range of concentrations. Initial reaction rates for the release of chloronitrophenolate were measured and the further progress of substrate cleavage monitored continuously. Reactions were performed on a Varian Cary 4000 UV/Vis spectrophotometer at 400 nm and 30 °C.

Work on `C[C@@H]1O[C@@H](O[C@@H]2CO[C@@H](Oc3c(O)cc(-c4oc5cc(O)cc(O)c5c(=O)c4O[C@@H]4O[C@@H](C)[C@H](O)[C@@H](O)[C@H]4O[C@@H]4O[C@H](CO)[C@@H](O)[C@H](O)[C@H]4O[C@@H]4O[C@H](CO)[C@@H](O)[C@H](O)[C@H]4O)cc3O)[C@H](O)[C@H]2O)[C@H](O)[C@H](O)[C@H]1O` [MbA-C (6)] yielded a Ki of 730 nM.
`C[C@@H]1O[C@@H](O[C@@H]2CO[C@@H](Oc3c(O)cc(-c4oc5cc(O)cc(O)c5c(=O)c4O[C@@H]4O[C@@H](C)[C@H](O)[C@@H](O)[C@H]4O[C@@H]4O[C@H](CO)[C@@H](O)[C@H](O)[C@H]4O)cc3O)[C@H](O)[C@H]2O)[C@H](O)[C@H](O)[C@H]1O` [MbA-CG (7)] showed a Ki of 2240 nM.
Work on `C[C@@H]1O[C@@H](Oc2c(-c3cc(O)c(O[C@@H]4OC[C@@H](O)[C@H](O)[C@H]4O)c(O)c3)oc3cc(O)cc(O)c3c2=O)[C@H](O[C@@H]2O[C@H](CO)[C@@H](O)[C@H](O)[C@H]2O)[C@H](O)[C@H]1O` [MbA-CGR (9)] yielded a Ki of 128000 nM.
`C[C@@H]1O[C@@H](Oc2c(-c3cc(O)c(O[C@@H]4OC[C@@H](O)[C@H](O)[C@H]4O)c(O)c3)oc3cc(O)cc(O)c3c2=O)[C@H](O[C@@H]2O[C@H](CO)[C@@H](O)[C@H](O)[C@H]2O[C@@H]2O[C@H](CO)[C@@H](O)[C@H](O)[C@H]2O)[C@H](O)[C@H]1O` [MbA-CR (8)] showed a Ki of 46800 nM.
In the case of `C[C@@H]1O[C@@H](O[C@@H]2CO[C@@H](Oc3c(O)cc(-c4oc5cc(O)cc(O)c5c(=O)c4O[C@@H]4O[C@@H](C)[C@H](O)[C@@H](O)[C@H]4O[C@@H]4O[C@H](COC(=O)/C=C/c5ccc(O)c(O)c5)[C@@H](O)[C@H](O)[C@H]4O)cc3O)[C@H](O)[C@H]2O)[C@H](O)[C@H](O)[C@H]1O` [MbA-G (1)], the Ki is reported as 9.1 nM.
`C[C@@H]1O[C@@H](Oc2c(-c3cc(O)c(O[C@@H]4OC[C@@H](O)[C@H](O)[C@H]4O)c(O)c3)oc3cc(O)cc(O)c3c2=O)[C@H](O[C@@H]2O[C@H](COC(=O)/C=C/c3ccc(O)c(O)c3)[C@@H](O)[C@H](O)[C@H]2O)[C@H](O)[C@H]1O` [MbA-GR (4)] showed a Ki of 79.3 nM.
`C[C@@H]1O[C@@H](Oc2c(-c3cc(O)c(O)c(O)c3)oc3cc(O)cc(O)c3c2=O)[C@H](O[C@@H]2O[C@H](COC(=O)/C=C/c3ccc(O)c(O)c3)[C@@H](O)[C@H](O)[C@H]2O[C@@H]2O[C@H](CO)[C@@H](O)[C@H](O)[C@H]2O)[C@H](O)[C@H]1O` [MbA-RX (3)] showed a Ki of 42.4 nM.
Work on `O=C(/C=C/c1ccc(O)c(O)c1)NCc1cn(CCCCCCOc2c(-c3ccc(O)c(O)c3)oc3cc(O)cc(O)c3c2=O)nn1` [mini-MbA analog inhibitor 10] yielded a Ki of 13900 nM.
`C[C@@H]1O[C@@H](Oc2c(-c3cc(O)c(O)c(O)c3)oc3cc(O)cc(O)c3c2=O)[C@H](O[C@@H]2O[C@H](COC(=O)/C=C/c3ccc(O)c(O)c3)[C@@H](O)[C@H](O)[C@H]2O)[C@H](O)[C@H]1O` [mini-MbA] was tested, and the Ki was 93.3 nM.
